What was measured:
large crabgrass = experiment: Test A pre-/postemergence herbicide test; assay type: in vivo, Digitaria sanguinalis
Outline: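 Both application timings were run together: directed soil spray over freshly planted seeds in sandy loam, and runoff spray onto 2–10 cm seedlings. Evaluation after ~10 days in greenhouse used a 0–100 visual scale versus untreated controls.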

woolly cupgrass = experiment: Test C pre-/postemergence herbicide test; assay type: in vivo, Eriochloa villosa; conditions: for Cupgrass, Woolly plant response rating: 500 g ai/ha
Outline: (§1)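 Emerged plants at the 1- to 4-leaf stage (2–18 cm), or freshly planted seeds, received test chemicals in a non-phytotoxic solvent mixture with surfactant. Response was visually scored against controls after 12 to 14 days in the greenhouse, on a 0 (no effect) to 100 (complete control) scale.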

rice = experiment: Test C flooded paddy test; assay type: in vivo, Oryza sativa; conditions: for Plant response rating, Rice: 500 g ai/ha, visual rating after 12 to 14 days
Outline: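 Postemergence sprays applied to plants 2 to 18 cm tall (1- to 4-leaf stage); paddy species grown to 2-leaf stage under flooding. After 12 to 14 days in greenhouse, visual rating versus untreated controls on 0–100 scale (0 no effect, 100 complete control).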

[1] = system: common (oilseed) sunflower; experiment: Test C pre-/postemergence herbicide test; assay type: in vivo, Helianthus annuus; conditions: for Plant response rating (0 = no effect, 100 = complete control), Sunflower: 62 g ai/ha; for Plant response rating (0 = no effect, 100 = complete control), Sunflower / Plant response rating, Sunflower: preemergence; for Plant response rating, Sunflower: 125 g ai/ha, scale 0 (no effect) to 100 (complete control), visual, 12 to 14 days; for Sunflower plant response rating: Preemergence, 500 g ai/ha, scale 0 to 100, 0 no effect, 100 complete control
Outline: as §1

corn = experiment: Test C pre-/postemergence herbicide test; assay type: in vivo, Zea mays; conditions: for Corn plant response rating: 500 g ai/ha
Outline: as §1

velvetleaf = experiment: Test C pre-/postemergence herbicide test; assay type: in vivo, Abutilon theophrasti; conditions: for Velvetleaf plant response rating: 500 g ai/ha
Outline: as §1

bermudagrass = experiment: Test C pre-/postemergence herbicide test; assay type: in vivo, Cynodon dactylon; conditions: for Bermudagrass plant response rating: 500 g ai/ha
Outline: as §1

soybean = experiment: Test C pre-/postemergence herbicide test; assay type: in vivo, Glycine max; conditions: for Soybean plant response rating: 500 g ai/ha
Outline: as §1

[2] = system: smallflower umbrella sedge; experiment: Test C flooded paddy test; assay type: in vivo, Cyperus difformis; conditions: for Plant response rating, Sedge, Umbrella: 500 g ai/ha, visual rating after 12 to 14 days
[3] = Postemergence, 500 g ai/ha, 0 to 100 scale, 0 no effect, 100 complete control
[4] = Postemergence, 2000 g ai/ha, 0 to 100 scale, 0 no effect, 100 complete control
[5] = Preemergence, 500 g ai/ha, visual rating, 0 to 100 scale (0 no effect, 100 complete control)
[6] = Preemergence, 2000 g ai/ha, visual rating, 0 to 100 scale (0 no effect, 100 complete control)
[7] = 125 g ai/ha, scale 0 (no effect) to 100 (complete control), visual, 12 to 14 days, preemergence
[8] = 250 g ai/ha, scale 0 to 100 (0 no effect, 100 complete control), visual, 12 to 14 days, preemergence
[9] = Preemergence, scale 0 to 100, 0 no effect, 100 complete control
[10] = 62 g ai/ha, scale 0 to 100 (0 no effect, 100 complete control)
[11] = 125 g ai/ha, scale of 0 to 100, 0 is no effect, 100 is complete control
[12] = 250 g ai/ha, scale of 0 to 100, 0 is no effect, 100 is complete control
[13] = scale 0 to 100 (0 no effect, 100 complete control)
[14] = Postemergence, 250 g ai/ha, scale 0 to 100, 0 no effect, 100 complete control
[15] = postemergence, 125 g ai/ha, scale 0 to 100
[16] = postemergence, 62 g ai/ha, scale 0 to 100

CC(=NO)c1cccc(NC(=O)c2cc(C(C)(C)C)nn2C)c1 [Compound 102]
20: Plant response rating, Cupgrass, Woolly (woolly cupgrass; [8]) | Rice plant response rating (rice; [10]) | Plant response rating, Sunflower [1] | Sunflower plant response rating [1] | Plant response rating, Velvetleaf (velvetleaf; [7]) | Soybean plant response rating (soybean; [9])
80: Plant response rating, Crabgrass, Large (large crabgrass; [4]) | Plant response rating, Sedge, Umbrella [2, 13]
70: Sedge, Umbrella plant response rating [2, 11] | Sedge, Umbrella plant response rating [2, 12]
30: Rice plant response rating (rice; [11]) | Corn plant response rating (corn; [9])
60: Crabgrass, Large plant response rating (large crabgrass; [3]) | Plant response rating, Rice (rice; [13]) | Velvetleaf plant response rating (velvetleaf; [9])
50: Sedge, Umbrella plant response rating [2, 10]
10: Plant response rating, Cupgrass, Woolly (woolly cupgrass; [7]) | Plant response rating, Corn (corn; [8])
40: Cupgrass, Woolly plant response rating (woolly cupgrass; [9]) | Rice plant response rating (rice; [12])
0: Plant response rating (0 = no effect, 100 = complete control), Cupgrass, Woolly (woolly cupgrass; 62 g ai/ha, preemergence) | Plant response rating (0 = no effect, 100 = complete control), Sunflower [1] | Plant response rating (0 = no effect, 100 = complete control), Corn (corn; 62 g ai/ha, preemergence) | Plant response rating, Corn (corn; [7]) | Plant response rating (0 = no effect, 100 = complete control), Soybean (soybean; 62 g ai/ha, preemergence) | Plant response rating, Soybean (soybean; [7])
95: Crabgrass, Large plant response rating (large crabgrass; [5])
100: Crabgrass, Large plant response rating (large crabgrass; [6]) | Plant response rating (0 = no effect, 100 = complete control), Bermudagrass (bermudagrass; 62 g ai/ha, preemergence) | Plant response rating, Bermudagrass (bermudagrass; [7]) | Plant response rating, Bermudagrass (bermudagrass; [8]) | Bermudagrass plant response rating (bermudagrass; [9])

CCn1nc(C(C)(C)C)cc1C(=O)Nc1cccc(C(C)=NO)c1 [Compound 108]
40: Cupgrass, Woolly plant response rating (woolly cupgrass; Postemergence, scale 0 to 100) | Plant response rating, Cupgrass, Woolly (woolly cupgrass; [14]) | Plant response rating, Cupgrass, Woolly (woolly cupgrass; [15]) | Plant response rating, Corn (corn; [7]) | Plant response rating, Velvetleaf (velvetleaf; [16])
100: Crabgrass, Large plant response rating (large crabgrass; [6]) | Velvetleaf plant response rating (velvetleaf; [9]) | Plant response rating (0 = no effect, 100 = complete control), Bermudagrass (bermudagrass; 62 g ai/ha, preemergence) | Plant response rating, Bermudagrass (bermudagrass; [7]) | Plant response rating, Bermudagrass (bermudagrass; [8]) | Bermudagrass plant response rating (bermudagrass; [9])
85: Plant response rating, Crabgrass, Large (large crabgrass; [4]) | Crabgrass, Large plant response rating (large crabgrass; [5])
10: Soybean plant response rating (soybean; [9])
60: Corn plant response rating (corn; Postemergence, scale 0 to 100) | Plant response rating, Velvetleaf (velvetleaf; [15]) | Plant response rating, Bermudagrass (bermudagrass; [14]) | Soybean plant response rating (soybean; Postemergence, scale 0 to 100) | Plant response rating, Soybean (soybean; [14]) | Plant response rating, Soybean (soybean; [15]) | Sedge, Umbrella plant response rating [2, 10]
90: Plant response rating, Velvetleaf (velvetleaf; [7]) | Velvetleaf plant response rating (velvetleaf; Postemergence, scale 0 to 100)
30: Plant response rating (0 = no effect, 100 = complete control), Cupgrass, Woolly (woolly cupgrass; 62 g ai/ha, preemergence) | Plant response rating (0 = no effect, 100 = complete control), Corn (corn; 62 g ai/ha, preemergence) | Plant response rating, Bermudagrass (bermudagrass; [15]) | Plant response rating, Bermudagrass (bermudagrass; [16])
65: Crabgrass, Large plant response rating (large crabgrass; [3])
20: Plant response rating, Cupgrass, Woolly (woolly cupgrass; [16]) | Rice plant response rating (rice; [12]) | Plant response rating (0 = no effect, 100 = complete control), Sunflower [1] | Plant response rating, Sunflower [1] | Sunflower plant response rating [1]
50: Plant response rating, Cupgrass, Woolly (woolly cupgrass; [7]) | Plant response rating, Cupgrass, Woolly (woolly cupgrass; [8]) | Plant response rating, Rice (rice; [13]) | Plant response rating, Corn (corn; [8]) | Plant response rating, Corn (corn; [14]) | Corn plant response rating (corn; [9]) | Plant response rating, Corn (corn; [15]) | Plant response rating, Corn (corn; [16]) | Plant response rating, Soybean (soybean; [16])
0: Rice plant response rating (rice; [10]) | Rice plant response rating (rice; [11]) | Plant response rating, Soybean (soybean; [7])
80: Cupgrass, Woolly plant response rating (woolly cupgrass; [9]) | Plant response rating, Velvetleaf (velvetleaf; [14]) | Bermudagrass plant response rating (bermudagrass; Postemergence, scale 0 to 100) | Sedge, Umbrella plant response rating [2, 11] | Sedge, Umbrella plant response rating [2, 12] | Plant response rating, Sedge, Umbrella [2, 13]
